# Data from patent US20190358176A1, “METHODS OF SENSITIZING CANCER CELLS TO IMMUNE CELL KILLING” (University of Pittsburgh - of the Commonwealth System of …, priority 2017, published 2019).
# How the values were obtained:
# zebrafish embryos = experiment: ROS generation in zebrafish embryos (DHE); assay type: in vivo; conditions: developing zebrafish embryos, 48 hpf
# Procedure: All procedures involving zebrafish were reviewed and approved by the University of Pittsburgh Institutional Animal Care and Use Committee. Wildtype AB* embryos were kept in E3 medium (5 mM NaCl, 0.17 mM KCl, 0.33 mM CaCl2, 0.33 mM MgSO4). At 48 hours post fertilization (hpf), embryos were arrayed into the wells of a 96 well microplate and treated with vehicle (0.5% DMSO) or test agents. After a 30-min pre-incubation, embryos were labeled with a solution of 10 μM DHE and 40 μg/mL MS222 (tricaine methanesulfonate, Sigma) in E3 to restrict movement during imaging. Six hours after DHE loading, embryos were imaged on an ArrayScan II using a 2.5× objective. Images were analyzed for oxyethidium fluorescence with the TargetActivation Bioapplication using the MEAN_ObjectAvgIntenCh1 parameter.
# MDA-MB-231 cells = experiment: HCA of cell motility and cytotoxicity (Oris Pro 384 cell migration plate); assay type: cell-based, human; conditions: 48 hours, at antimigratory concentrations
# Procedure: HCA of cell motility and cytotoxicity was performed essentially as described (51). MDA-MB-231 cells (15,000/well) were plated in collagen-coated Oris™ Pro 384-well microplates (Platypus Technologies cat # PRO384CMACCS) containing a chemical exclusion zone that dissolves upon cell seeding. Two hours after plating, medium was removed, and cells treated with ten-point, two-fold concentration gradients of test agents. Forty-eight hours after treatment, cells were stained with 10 μg/ml Hoechst 33342 and 1 μg/ml PI in HBSS for 15 min at 37° C. Plates were washed once with PBS and scanned live on the ArrayScan II using a 5× objective. To capture cells that had entered into the exclusion zone, a single field was acquired in the center of the well and nuclei therein enumerated. To assess changes in cell loss, nuclear size, and necrotic cell death, a second scan was performed that captured one field at the edge of the well (51). Parameters exported and plotted were SelectedObjectCountPerValidField (cell density), MEAN ObjectAreaCh1 (nucleus size), and % RESPONDER MeanAvgIntenCh2 (percent PI positive cells based on based on a threshold set with vehicle treated cells).
# rat hepatocytes = experiment: Five-day hepatocyte toxicity (PI positive cells); assay type: cell-based; conditions: rat hepatocytes, 5-day exposure
# Procedure: Rat hepatocytes were isolated using standard two step collagenase digestion (15) and sub-cultivated at 14,000 hepatocytes/well in collagen-1 coated 384 well plates in Williams E Medium supplemented with 10% FBS, 2 mM L-glutamine and 50 U/ml Penicillin and streptomycin. After 4 hours, medium was decanted and replaced with Hepatocyte Maintenance Media (Williams E supplemented with 1.25 mg/ml bovine serum albumin, 6.25 μg/ml human insulin, 100 nM dexamethasone, 6.25 μg/ml human transferrin, 6.25 ng/ml selenous acid, 2 mM L-glutamine, 15 mM HEPES, 100 U/mL penicillin, and 100 U/mL streptomycin). After overnight culture, cells were treated with concentration gradients of test agents. One hour after compound addition, cells were labeled with 200 nM TMRE and 4 μg/ml Hoechst 33342 for 45 min, imaged live on an ArrayScan VTI using a 10× objective, and images were analyzed with the Compartmental Bioapplication. Mitochondria were identified as cytosolic spots by size and brightness. The final parameter was % HIGH RingSpotAvgIntenCh2 (i.e., percentage of cells with TMRE puncta in the cytoplasm based on a threshold set with vehicle treated cells).
# A gelling solution of 1.25 mg/ml rat tail collagen type I in pH 7.2 90:10 (v/v) Williams E media/10×HBSS was overlaid onto the rat hepatocytes. The collagen gel was incubated for 1 hour at 37° C., 5% CO2. The collagen sandwich cultures were then challenged for 5 days to test compounds in Hepatocyte Maintenance Media, without refeeding. A 10× solution of 40 μg/ml Hoechst 33342 was added during the final 2 hours of incubation followed by a 10× solution of 20 μg/ml PI for 1 hour. Cells were imaged and the percentage of PI positive cells calculated as above.
structure (smiles),measurement,setting,value
O=C1/C(=C/c2ccccc2)C(NC2CCCCC2)c2cc(Br)ccc21 (stereo not drawn) [BCI-215],generation of ROS in zebrafish embryos (DHE),zebrafish embryos,does not Generate Reactive Oxygen Species
same,necrosis (% PI positive cells),MDA-MB-231 cells,no signs of necrosis
same,"hepatocyte toxicity, cell death (PI positive cells)",rat hepatocytes,completely devoid of hepatocyte toxicity up to 100
